Assays:
giant foxtail = experiment: Test B pre/postemergence giant foxtail; type: in vivo, Setaria faberii
Outline: (§1)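 Response is a visual 0-to-10 score relative to untreated plants, where 0 means no effect and 10 means complete control, taken twelve to sixteen days after application. Treatments went onto soil at planting and onto foliage of 1- to 4-leaf plants, using a surfactant-containing non-phytotoxic solvent.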

duck salad = experiment: Test B flood test duck salad; type: in vivo, Heteranthera limosa
Outline: (§2)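 Flood test on plants grown to the 2-leaf stage; treated plants kept in greenhouse twelve to sixteen days, then visually rated against controls on a 0 (no effect) to 10 (complete control) scale.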

morningglory = experiment: Test B pre/postemergence morningglory; type: in vivo, Ipomoea hederacea
Outline: as §1

rice = experiment: Test B flood test rice; type: in vivo, Oryza sativa
Outline: as §2

[1] = Postemergence, Rate 250 g/ha, scale 0 to 10
[2] = Postemergence, Rate 500 g/ha, scale of 0 to 10 where 0 is no effect and 10 is complete control
[3] = Preemergence, Rate 62 g/ha, scale of 0 to 10 where 0 is no effect and 10 is complete control
[4] = Preemergence, Rate 125 g/ha, scale of 0 to 10 where 0 is no effect and 10 is complete control
[5] = Preemergence, Rate 250 g/ha, scale 0 to 10, 0 is no effect, 10 is complete control
[6] = Preemergence, Rate 500 g/ha, scale 0 to 10, 0 is no effect, 10 is complete control
[7] = Rate 62 g/ha, Postemergence, scale 0 to 10, 0 no effect, 10 complete control
[8] = Rate 125 g/ha, Postemergence, scale 0 to 10, 0 is no effect, 10 is complete control
[9] = Rate 62 g/ha, flood test species, Pre-emergence, visual evaluation after twelve to sixteen days
[10] = Rate 125 g/ha, under heading Pre-emergence, flood test species, visual evaluation after twelve to sixteen days
[11] = Rate 250 g/ha, Pre-emergence (flood test species), scale 0 to 10, 0 is no effect, 10 is complete control
[12] = Rate 500 g/ha, Pre-emergence, flood test species, scale 0 to 10 (0 no effect, 10 complete control)
[13] = Preemergence, Rate 250 g/ha, scale of 0 to 10 where 0 is no effect and 10 is complete control
[14] = Preemergence, Rate 500 g/ha, scale of 0 to 10 where 0 is no effect and 10 is complete control
[15] = Rate 125 g/ha, Postemergence, scale of 0 to 10 where 0 is no effect and 10 is complete control
[16] = Rate 250 g/ha, Postemergence, scale of 0 to 10 where 0 is no effect and 10 is complete control
[17] = Rate 62 g/ha, headed Pre-emergence (flood test species), scale 0 to 10 (0 no effect, 10 complete control)
[18] = Rate 125 g/ha, Pre-emergence, flood test species, scale 0 to 10 where 0 is no effect and 10 is complete control
[19] = Rate 250 g/ha, Pre-emergence, flood-test species, scale 0 to 10, 0 is no effect, 10 is complete control
[20] = Postemergence, Rate 125 g/ha, scale 0 to 10, 0 is no effect, 10 is complete control
[21] = Rate 500 g/ha, Postemergence, scale 0 to 10, 0 no effect, 10 complete control
[22] = Pre-emergence, Rate 1000 g/ha, scale 0 to 10 (0 no effect, 10 complete control)

SMILES | Giant foxtail plant response rating (giant foxtail; [7]) | Ducksalad plant response rating (duck salad; [12]) | Morningglory plant response rating (morningglory; [7]) | Rice plant response rating (rice; [12]) | Giant foxtail plant response rating (giant foxtail; [3]) | Giant foxtail plant response rating (0 to 10 scale) (giant foxtail; Preemergence, Rate 125 g/ha) | Giant foxtail plant response rating (giant foxtail; [13]) | Giant foxtail plant response rating (giant foxtail; [14]) | Ducksalad plant response rating (duck salad; [18]) | Ducksalad plant response rating (duck salad; [19]) | Morningglory plant response rating (morningglory; [3]) | Morningglory plant response rating (0 to 10 scale) (morningglory; Preemergence, Rate 125 g/ha) | Morningglory plant response rating (morningglory; [13]) | Morningglory plant response rating (morningglory; [14]) | Rice plant response rating (rice; [18]) | Rice plant response rating (rice; [19]) | further results
Cc1nc(C)c(C(C)n2c(=O)on(C(=O)N(c3ccc(F)cc3F)C(C)C)c2=O)s1 (centres unmarked) [Compound 443] | 0 | 0 | 2 | 0 | – | – | – | – | – | – | – | – | – | – | – | – | Giant foxtail plant response rating (giant foxtail; [1]): 0; Giant foxtail plant response rating (giant foxtail; [2]): 0; Plant response rating, Giant foxtail (giant foxtail; [3]): 3; Plant response rating, Giant foxtail (giant foxtail; [4]): 4; Giant foxtail plant response rating (giant foxtail; [5]): 10; Giant foxtail plant response rating (giant foxtail; [6]): 10; Giant foxtail plant response rating (giant foxtail; [8]): 0; Plant response rating, Ducksalad (0 to 10 scale, 0 is no effect, 10 is complete control) (duck salad; [9]): 0; Ducksalad plant response rating (0 to 10 scale, 0 is no effect, 10 is complete control) (duck salad; [10]): 0; Ducksalad plant response rating (duck salad; [11]): 0; Morningglory plant response rating (morningglory; [1]): 4; Morningglory plant response rating (morningglory; [2]): 4; Plant response rating, Morningglory (morningglory; [3]): 0; Plant response rating, Morningglory (morningglory; [4]): 0; Morningglory plant response rating (morningglory; [5]): 0; Morningglory plant response rating (morningglory; [6]): 0; Morningglory plant response rating (morningglory; [8]): 3; Plant response rating, Rice (0 to 10 scale, 0 is no effect, 10 is complete control) (rice; [9]): 0; Rice plant response rating (0 to 10 scale, 0 is no effect, 10 is complete control) (rice; [10]): 0; Rice plant response rating (rice; [11]): 0
Cc1ccccc1-n1c(=O)on(C(=O)N(c2ccncc2)C(C)C)c1=O [Compound 301] | 0 | 0 | 0 | 0 | 0 | 0 | 0 | 0 | 0 | 0 | 0 | 0 | 0 | 0 | 0 | 0 | Giant foxtail plant response rating (giant foxtail; [15]): 0; Plant response rating, Giant foxtail (giant foxtail; [16]): 0; Ducksalad plant response rating (duck salad; [17]): 0; Morningglory plant response rating (morningglory; [15]): 0; Plant response rating, Morningglory (morningglory; [16]): 0; Rice plant response rating (rice; [17]): 0
CC(C)N(C(=O)n1oc(=O)n(-c2ccc3ccccc3c2)c1=O)c1ccccc1 [Compound 332] | 0 | 0 | 0 | 0 | 0 | 1 | 4 | 7 | 0 | 0 | 0 | 0 | 0 | 0 | 0 | 0 | Plant response rating, Giant foxtail (giant foxtail; [20]): 0; Plant response rating, Giant foxtail (giant foxtail; [21]): 0; Ducksalad plant response rating (duck salad; [22]): 0; Plant response rating, Morningglory (morningglory; [20]): 0; Plant response rating, Morningglory (morningglory; [21]): 0; Rice plant response rating (rice; [22]): 0

From patent US6737383B1, “Herbicidal oxadiazolidines” (priority 1999, dated 2004)
